Experimental data published in patent US8501794B2, “Compounds as cannabinoid receptor ligands” (priority 2007, dated 2013).
Like-named read-outs stand apart in the source and are kept apart here.

How the values were obtained:
human CB2 receptors = target: T1, human CB2 receptors (Homo sapiens, UniProt P34972); test: human CB2 radioligand binding assay ([3H]CP-55,940 competition)
T1 construct: expressed in transfected cells; host or cells: HEK293

rat CB2 = target: T2, rat CB2 (Rattus norvegicus, UniProt Q9QZN9); test: rat CB2 radioligand binding assay ([3H]CP-55,940 competition); design: expressed in transfected cells; host or cells: HEK293
T2 sequence (Q9QZN9 1-360): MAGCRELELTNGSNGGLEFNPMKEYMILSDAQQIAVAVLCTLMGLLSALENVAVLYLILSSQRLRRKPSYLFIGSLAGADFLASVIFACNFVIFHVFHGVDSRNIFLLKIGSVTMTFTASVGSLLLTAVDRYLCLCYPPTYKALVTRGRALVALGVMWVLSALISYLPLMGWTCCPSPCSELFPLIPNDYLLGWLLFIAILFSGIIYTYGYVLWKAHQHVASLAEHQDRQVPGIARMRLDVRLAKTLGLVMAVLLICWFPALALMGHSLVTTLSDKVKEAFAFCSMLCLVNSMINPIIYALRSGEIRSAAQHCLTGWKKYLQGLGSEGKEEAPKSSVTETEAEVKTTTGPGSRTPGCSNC

[1] = HEK293 membranes, 0.5 nM [3H]CP-55,940, read-out: human CB2 (Ki)
[2] = HEK293 membranes, 0.5 nM [3H]CP-55,940, read-out: rat CB2 (Ki)

T1 sequence (P34972 whole entry): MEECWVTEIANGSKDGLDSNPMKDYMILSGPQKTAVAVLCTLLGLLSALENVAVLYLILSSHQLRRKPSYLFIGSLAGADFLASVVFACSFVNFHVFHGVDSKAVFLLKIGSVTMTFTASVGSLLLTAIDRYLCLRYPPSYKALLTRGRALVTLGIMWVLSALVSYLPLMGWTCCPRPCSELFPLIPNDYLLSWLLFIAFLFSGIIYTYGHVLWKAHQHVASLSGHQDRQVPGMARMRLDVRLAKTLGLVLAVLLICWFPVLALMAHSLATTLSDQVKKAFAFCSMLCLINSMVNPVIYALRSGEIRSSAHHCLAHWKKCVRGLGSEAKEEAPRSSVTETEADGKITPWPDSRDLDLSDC

SMILES	Ki (human CB2 receptors; [1]) [nM]	Ki (rat CB2; [2]) [nM]	Ki (rat CB2) [nM]	Ki (human CB2 receptors) [nM]
CCCCc1cn(C(C)(C)C)s/c1=N\C(=O)c1cc(C(F)(F)F)ccc1OCc1cnccn1 [Example 198, N-[(5Z)-4-butyl-2-tert-butylisothiazol-5(2H)-ylidene]-2-(pyrazin-2-ylmethoxy)-5-(trifluoromethyl)benzamide]	250	111	–	–
CC(C)Cc1cn(C(C)(C)C)s/c1=N\C(=O)c1cc(C(F)(F)F)ccc1OCc1ccccn1 [Example 200, N-[(5Z)-2-tert-butyl-4-isobutylisothiazol-5(2H)-ylidene]-2-(pyridin-2-ylmethoxy)-5-(trifluoromethyl)benzamide]	470	391	–	–
CCCCc1cn(C(C)(C)C)s/c1=N\C(=O)[C@]1(C)CC[C@H](C(=O)NC2CC2)C1(C)C [Example 208, (1R,3S)—N^1-[(5Z)-4-butyl-2-tert-butylisothiazol-5(2H)-ylidene]-N^3-cyclopropyl-1,2,2-trimethylcyclopentane-1,3-dicarboxamide]	200	–	11	–
CCCCc1cn(C(C)(C)C)s/c1=N\C(=O)[C@@H]1CC[C@](C)(C(=O)NCCC)C1(C)C [Example 211, (1S,3R)—N^3-[(5Z)-4-butyl-2-tert-butylisothiazol-5(2H)-ylidene]-1,2,2-trimethyl-N^1-propylcyclopentane-1,3-dicarboxamide]	270	111	–	–
CCCCc1cn(C(C)(C)C)s/c1=N\C(=O)[C@]1(C)CC[C@H](C(=O)NCCCO)C1(C)C [Example 213, (1R,3S)—N^1-[(5Z)-4-butyl-2-tert-butylisothiazol-5(2H)-ylidene]-N^3-(3-hydroxypropyl)-1,2,2-trimethylcyclopentane-1,3-dicarboxamide]	140	–	45	–
CCCCc1cn(C(C)(C)C)s/c1=N\C(=O)[C@]1(C)CC[C@H](C(=O)NC[C@H]2CCCO2)C1(C)C [Example 214, (1R,3S)—N^1-[(5Z)-4-butyl-2-tert-butylisothiazol-5(2H)-ylidene]-1,2,2-trimethyl-N^3-[(2R)-tetrahydrofuran-2-ylmethyl]cyclopentane-1,3-dicarboxamide]	–	–	83	130
CCCCc1cn(C(C)(C)C)s/c1=N\C(=O)[C@]1(C)CC[C@H](NC(=O)OC)C1(C)C [Example 215, Methyl (1S,3R)-3-({[(5Z)-4-butyl-2-tert-butylisothiazol-5(2H)-ylidene]amino}carbonyl)-2,2,3-trimethylcyclopentylcarbamate]	–	–	91	69
CCCCc1cn(C(C)(C)C)s/c1=N\C(=O)[C@]1(C)CC[C@H](NC(=O)OCC)C1(C)C [Example 216, Ethyl (1S,3R)-3-({[(5Z)-4-butyl-2-tert-butylisothiazol-5(2H)-ylidene]amino}carbonyl)-2,2,3-trimethylcyclopentylcarbamate]	160	299	–	–
CCCCc1cn(C(C)(C)C)s/c1=N\C(=O)[C@@]1(C)CC[C@@H](C(=O)NCCC)C1(C)C [Example 219, (1S,3R)—N^1-[(5Z)-4-butyl-2-tert-butylisothiazol-5(2H)-ylidene]-1,2,2-trimethyl-N^3-propylcyclopentane-1,3-dicarboxamide]	204	159	–	–
CCCCc1cn(C(C)(C)C)s/c1=N\C(=O)[C@@H]1CC[C@](C)(C2=NCCO2)C1(C)C [Example 224, (1R,3S)—N-[(5Z)-4-butyl-2-tert-butylisothiazol-5(2H)-ylidene]-3-(4,5-dihydro-1,3-oxazol-2-yl)-2,2,3-trimethylcyclopentanecarboxamide]	–	–	20	38
CCCCc1cn(C(C)(C)C)s/c1=N\C(=O)[C@@]1(C)CC[C@@H](C(=O)NC2CCC2)C1(C)C [Example 225, (1S,3R)—N^1-[(5Z)-4-butyl-2-tert-butylisothiazol-5(2H)-ylidene]-N^3-cyclobutyl-1,2,2-trimethylcyclopentane-1,3-dicarboxamide]	290	423	–	–
